# How the values were obtained:
# Format in all cases: in vivo, human
# [1] = Therapeutic drug monitoring of teicoplanin trough concentration (Cmin) during treatment, LC-MS/MS; details: for TDM ≤ 7d (teicoplanin trough concentration) / TDM ≥ 15d (teicoplanin trough concentration): median [IQR], LC-MS/MS
# Procedure: Teicoplanin (Targocid, Sanofi, Dublin, Ireland) was administered intravenously for 30 min. The prescribed dose regimens were at the discretion of treating physicians, and the recommended regimens were not always followed.
# Blood samples (5 mL) were collected from the elbow into ethylenediaminetetraacetic acid-containing Vacutainers® (Becton Dickinson, Milan, Italy) in the morning before teicoplanin administration and after drug withdrawal. Samples were promptly refrigerated and centrifuged at 2500 × g for 10 min before 2 mL of supernatant was preserved at -20 °C for subsequent analysis. Teicoplanin concentrations were determined using liquid chromatography-tandem mass spectrometry. The linear range of the method was 1.0–100.0 mg/L, and the lower limit of quantification was 1.0 mg/L. The relative standard deviation of intra- and inter-batch precision was ≤ 10%.
# Teicoplanin concentrations were dynamically monitored. Concentrations at 3, ≤ 7, 8–14, and ≥ 15 days after the first dose and within 2 h of the next scheduled dose were recorded as TDM3d, TDM≤7d, TDM8-14d, and TDM≥15d, respectively. Concentrations at 3, ≤ 7, 8–14, and ≥ 15 days after the last teicoplanin dose (withdrawal) were recorded as TDMw3d, TDMw≤7d, TDMw8-14d, and TDMw≥15d. respectively (Fig. 1a). The Cmin target was ≥ 10 mg/L [6, 7, 23]; a concentration < 10 mg/L was considered suboptimal. Average TDM (TDMa) was defined as the mean Cmin after 3 days of treatment.
# [2] = Thrombocytopenia during teicoplanin treatment
# From the text: Patients with platelet counts < 100 × 10^9/L at baseline were excluded. Thrombocytopenia was defined as a decrease in the platelet count of > 30% from baseline.
# [3] = Hepatotoxicity during teicoplanin treatment
# From the text: Patients with abnormal liver function at baseline were excluded. Hepatotoxicity was defined as an increase in the alanine aminotransferase or aspartate aminotransferase concentration to more than three times the upper limit of the institution’s normal reference ranges.
# [4] = ≤ 7 days after first dose, LR-A + MR-A
# [5] = ≤ 7 days after first dose, LR-B + MR-A
# [6] = ≤ 7 days after first dose, LR-B + MR-B
# [7] = ≤ 7 days after first dose, LR-C + MR-B
# [8] = ≤ 7 days after first dose, LR-C + MR-C
# [9] = ≥ 15 days after first dose, LR-A + MR-A
# [10] = ≥ 15 days after first dose, LR-B + MR-A
# [11] = ≥ 15 days after first dose, LR-B + MR-B
# [12] = ≥ 15 days after first dose, LR-C + MR-B
substance,measurement,setting,value
Teicoplanin,target concentration achievement rate (≥ 10 mg/L),"[1]; TDM≤7d, LR-C + MR-B regimen",56.2%
same,target concentration achievement rate (≥ 10 mg/L),"[1]; TDM≤7d, LR-C + MR-C regimen",85.7%
same,target concentration achievement rate (≥ 10 mg/L),"[1]; TDM≥15d, LR-A + MR-A regimen",77.8%
same,target concentration achievement rate (≥ 10 mg/L),"[1]; TDM≥15d, LR-B + MR-A regimen",84.6%
same,target concentration achievement rate (≥ 10 mg/L),"[1]; TDM≥15d, LR-B + MR-B regimen",100%
same,target concentration achievement rate (≥ 10 mg/L),"[1]; TDM≥15d, LR-C + MR-B regimen",100%
same,patients achieving therapeutic concentrations,"[1]; after 14 days of administration, all patients",more than 80%
same,"patients with TDM 10–20 mg/L ≤ 7d, N (%)",[1]; [4],6(12.2)
same,"patients with TDM < 10 mg/L ≤ 7d, N (%)",[1]; [4],40(81.7)
same,"patients with TDM > 20 mg/L ≤ 7d, N (%)",[1]; [4],3(6.1)
same,TDM ≤ 7d (teicoplanin trough concentration),"[1]; ≤ 7 days after first dose, LR-A + MR-A (200 mg once daily, then 200 mg once daily)","6.4[4.7,8.2] mg/L"
same,"patients with TDM 10–20 mg/L ≤ 7d, N (%)",[1]; [5],10(18.5)
same,"patients with TDM < 10 mg/L ≤ 7d, N (%)",[1]; [5],41(75.9)
same,"patients with TDM > 20 mg/L ≤ 7d, N (%)",[1]; [5],3(5.6)
same,TDM ≤ 7d (teicoplanin trough concentration),"[1]; ≤ 7 days after first dose, LR-B + MR-A (400 mg once daily, then 200 mg once daily)","7.2[5.5,10.0] mg/L"
same,"patients with TDM 10–20 mg/L ≤ 7d, N (%)",[1]; [6],2(28.6)
same,"patients with TDM < 10 mg/L ≤ 7d, N (%)",[1]; [6],3(42.8)
same,"patients with TDM > 20 mg/L ≤ 7d, N (%)",[1]; [6],2(28.6)
same,TDM ≤ 7d (teicoplanin trough concentration),"[1]; ≤ 7 days after first dose, LR-B + MR-B (400 mg once daily, then 400 mg once daily)","12.42[8.3,22.0] mg/L"
same,"patients with TDM 10–20 mg/L ≤ 7d, N (%)",[1]; [7],9(56.2)
same,"patients with TDM < 10 mg/L ≤ 7d, N (%)",[1]; [7],7(43.8)
same,"patients with TDM > 20 mg/L ≤ 7d, N (%)",[1]; [7],0
same,TDM ≤ 7d (teicoplanin trough concentration),"[1]; ≤ 7 days after first dose, LR-C + MR-B (400 mg at 12-h intervals, then 400 mg once daily)","11.0[7.0,12.6] mg/L"
same,"patients with TDM 10–20 mg/L ≤ 7d, N (%)",[1]; [8],8(57.1)
same,"patients with TDM < 10 mg/L ≤ 7d, N (%)",[1]; [8],2(14.3)
same,"patients with TDM > 20 mg/L ≤ 7d, N (%)",[1]; [8],4(28.6)
same,TDM ≤ 7d (teicoplanin trough concentration),"[1]; ≤ 7 days after first dose, LR-C + MR-C (400 mg at 12-h intervals, then 400 mg twice daily)","14.4[12.0,21.2] mg/L"
same,TDM ≤ 7d (teicoplanin trough concentration),"[1]; ≤ 7 days after first dose, all patients (N = 204), iv","7.6[5.6,12.2] mg/L"
same,"patients having suboptimal concentrations (< 10 mg/L), TDM≤7d","[1]; ≤ 7 days after first dose, all patients, 93 patients",66.4%
same,"patients with TDM 10–20 mg/L ≥ 15d, N (%)",[1]; [9],16(59.3)
same,"patients with TDM < 10 mg/L ≥ 15d, N (%)",[1]; [9],6(22.2)
same,"patients with TDM > 20 mg/L ≥ 15d, N (%)",[1]; [9],5(18.5)
same,TDM ≥ 15d (teicoplanin trough concentration),"[1]; ≥ 15 days after first dose, LR-A + MR-A (200 mg once daily, then 200 mg once daily)","12.7[10.1,17.4] mg/L"
same,"patients with TDM 10–20 mg/L ≥ 15d, N (%)",[1]; [10],15(57.7)
same,"patients with TDM < 10 mg/L ≥ 15d, N (%)",[1]; [10],4(15.4)
same,"patients with TDM > 20 mg/L ≥ 15d, N (%)",[1]; [10],7(26.9)
same,TDM ≥ 15d (teicoplanin trough concentration),"[1]; ≥ 15 days after first dose, LR-B + MR-A (400 mg once daily, then 200 mg once daily)","15.7[11.9,22.0] mg/L"
same,"patients with TDM 10–20 mg/L ≥ 15d, N (%)",[1]; [11],1(50.0)
same,"patients with TDM < 10 mg/L ≥ 15d, N (%)",[1]; [11],0
same,"patients with TDM > 20 mg/L ≥ 15d, N (%)",[1]; [11],1(50.0)
same,TDM ≥ 15d (teicoplanin trough concentration),"[1]; ≥ 15 days after first dose, LR-B + MR-B (400 mg once daily, then 400 mg once daily)","20.3[13.8,20.4] mg/L"
same,"patients with TDM 10–20 mg/L ≥ 15d, N (%)",[1]; [12],1(33.3)
same,"patients with TDM < 10 mg/L ≥ 15d, N (%)",[1]; [12],0
same,"patients with TDM > 20 mg/L ≥ 15d, N (%)",[1]; [12],2(66.7)
same,TDM ≥ 15d (teicoplanin trough concentration),"[1]; ≥ 15 days after first dose, LR-C + MR-B (400 mg at 12-h intervals, then 400 mg once daily)","23.0[19.4,28.6] mg/L"
same,TDM ≥ 15d (teicoplanin trough concentration),"[1]; ≥ 15 days after first dose, all patients (N = 204), iv","15.8[11.0,21.8] mg/L"
same,"patients having suboptimal concentrations (< 10 mg/L), TDM≥15d","[1]; ≥ 15 days after first dose, all patients, 10 patients",17.0%
same,incidence of thrombocytopenia,[2]; TDMa < 10 mg/L (16/49),32.7%
same,incidence of thrombocytopenia,[2]; TDMa = 10–20 mg/L (12/42),28.6%
same,incidence of thrombocytopenia,[2]; TDMa = 20–40 mg/L (7/20),35.0%
same,incidence of thrombocytopenia,"[2]; all evaluable patients (35/111), platelet count decrease > 30% from baseline",31.5%
same,incidence of hepatotoxicity,[3]; TDMa < 10 mg/L (2/65),3.1%
same,incidence of hepatotoxicity,[3]; TDMa = 10–20 mg/L (3/57),5.3%
same,incidence of hepatotoxicity,[3]; TDMa = 20–40 mg/L (1/26),3.8%
same,incidence of hepatotoxicity,"[3]; all evaluable patients (6/148), ALT or AST more than three times the upper limit of normal",4.1%

# From paper PMC11149339, “Necessity for higher teicoplanin doses in older adults: a multicenter prospective observational study in China” (BMC Geriatrics, 2024)
